Experiments:
[1] = target: BuChE (from equine serum) (Equus caballus, UniProt P81908); assay: BuChE inhibitory activity, Ellman's method with slight modification; type: biochemical
[2] = target: AChE (from Electrophorus electricus) (Electrophorus electricus, UniProt O42275); assay: biochemical; type: biochemical
Chain of AChE (from Electrophorus electricus) (O42275 24-633): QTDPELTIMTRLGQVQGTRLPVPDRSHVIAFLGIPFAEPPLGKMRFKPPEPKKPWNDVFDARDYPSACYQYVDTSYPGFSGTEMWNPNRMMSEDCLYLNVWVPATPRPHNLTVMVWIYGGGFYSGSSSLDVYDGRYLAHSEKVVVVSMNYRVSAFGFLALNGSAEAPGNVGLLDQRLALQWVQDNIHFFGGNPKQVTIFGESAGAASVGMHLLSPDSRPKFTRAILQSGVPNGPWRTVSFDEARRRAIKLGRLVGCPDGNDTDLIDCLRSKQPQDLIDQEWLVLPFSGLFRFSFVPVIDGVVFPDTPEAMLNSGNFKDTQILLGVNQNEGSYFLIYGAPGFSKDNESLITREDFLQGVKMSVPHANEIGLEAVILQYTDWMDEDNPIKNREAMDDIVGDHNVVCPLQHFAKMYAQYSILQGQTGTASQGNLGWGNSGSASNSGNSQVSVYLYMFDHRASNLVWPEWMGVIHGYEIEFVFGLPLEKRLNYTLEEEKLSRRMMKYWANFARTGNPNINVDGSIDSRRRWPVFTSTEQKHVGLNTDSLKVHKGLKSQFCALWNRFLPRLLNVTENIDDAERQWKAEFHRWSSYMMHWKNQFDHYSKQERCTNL

Chain of BuChE (from equine serum) (P81908 whole entry): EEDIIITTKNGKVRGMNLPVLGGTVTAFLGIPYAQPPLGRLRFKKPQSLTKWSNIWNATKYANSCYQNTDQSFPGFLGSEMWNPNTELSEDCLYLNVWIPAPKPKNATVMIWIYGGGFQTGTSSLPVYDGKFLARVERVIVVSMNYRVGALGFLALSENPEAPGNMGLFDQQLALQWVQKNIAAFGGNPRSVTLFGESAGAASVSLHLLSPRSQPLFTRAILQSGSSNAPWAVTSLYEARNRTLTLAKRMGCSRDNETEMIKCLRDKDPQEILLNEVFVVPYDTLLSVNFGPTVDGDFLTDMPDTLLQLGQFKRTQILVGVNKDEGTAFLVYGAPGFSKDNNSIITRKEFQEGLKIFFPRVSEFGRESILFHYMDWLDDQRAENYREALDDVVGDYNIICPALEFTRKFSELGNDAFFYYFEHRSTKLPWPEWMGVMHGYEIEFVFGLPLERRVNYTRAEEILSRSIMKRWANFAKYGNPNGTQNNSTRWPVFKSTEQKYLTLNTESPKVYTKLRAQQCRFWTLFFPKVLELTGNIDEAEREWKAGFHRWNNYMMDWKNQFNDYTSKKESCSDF

| SMILES | IC50 [1] [µM] | IC50 [2] [µM] | further results |
| --- | --- | --- | --- |
| COc1cc2c(cc1O)[C@@H]1Cc3ccc(O)c(OC)c3CN1CC2 [Compound 12, stepholidine] | 221.2 ± 1.62 |  |  |
| COc1cc2c(cc1OC)[C@@H]1Cc3ccc(OC)c(OC)c3CN1CC2 [Compound 14, tetrahydropalmatine] | 65.3 ± 0.8 |  |  |
| COc1cc2c(cc1O)CC[n+]1cc3c(OC)c(OC)ccc3cc1-2 [Compound 18, jatrorrhizine] | 31.46 ± 0.2 | 12.3 ± 0.44 |  |
| CN1CCc2cc3c(c4c2C1Cc1ccccc1-4)OCO3 (stereo not shown) [Compound 22, roemerine] | 2.85 ± 0.08 | 8.32 ± 0.12 | BuChE inhibition, fold more active than galanthamine [1]: approximately 1.3 fold |
| COc1ccc2c(c1OC)CC1c3c(cc4c(c3-2)OCO4)CCN1C (stereo not shown) [Compound 25, crebanine] | 10.5 ± 0.27 | 17.4 ± 0.22 | anti-AChE activity, fold less active than the 9,10-dimethoxy analogue 26 [2]: 2.8 fold; anti-BuChE activity, fold higher than that of 26 [1]: 2.5 fold |
| COc1cc2c(cc1OC)-c1c3c(cc4ccnc(c14)C2=O)OCO3 [Compound 35, dicentrinone] |  | 265.8 ± 0.8 |  |
| COc1cc2cc3c4c(cc5c(c4c2cc1OC)OCO5)CCN3C [Compound 42, dehydrodicentrine] |  |  | anti-BuChE activity, fold increase of the dehydroaporphine ([1]; relative to the aporphine group, comparator not named): 4.7 fold |
| COc1cc2c(cc1O)C(Cc1ccc(O)cc1)NCC2 (stereo not shown) [Compound 44, coclaurine] | 20.5 ± 0.42 | 40.9 ± 0.67 |  |
| COC1=C[C@]23CCN(C)[C@H](Cc4ccc(OC)c(O)c42)C3=CC1=O [Compound 45, salutaridine] |  | 7.49 ± 0.66 |  |
